Reference: patent publication US11969400B2, “Ibuprofen for symptomatic treatment of diarrheas in HIV patients” (priority 2021, dated 2024)

Test system: noninfectious diarrhea in HIV positive subjects
Test: Randomized double-blinded study of Acetaminophen vs Ibuprofen suspension in HIV positive subjects with noninfectious diarrhea
Assay type: in vivo, human
Details: for average number of stools twenty-four hours later: after 24 hours of treatment, clear liquid diet, range in brackets, two-tailed p <0.0001 between groups, 95% CI 1.44-2.6; for average number of stools on the first visit (day 1): baseline at first visit (day 1), 42 enrollees per group
Experimental: HIV positive subjects who present with noninfectious diarrhea are enrolled in a study. All enrollees are randomly divided into two groups A (Acetaminophen) and B (Ibuprofen) and treated for 24 hours. They receive a double-blinded suspension of either Acetaminophen or Ibuprofen during the study period. The enrollees are instructed to consume only a clear liquid diet during the study period. After 24 hours, the number of loose stools since last visit and status of hydration are reassessed. In addition, enrollees are examined and assessed for any possible side effects of the medications. A total of 84 patients are enrolled into the study. Both drug categories has 42 (50%) enrollees. Two patients are lost to follow up in each group. The average number of stools on the first visit (day 1) in group A (Acetaminophen) is 5.12 and the average number of stools in group B (ibuprofen) is 5.25. Twenty-four hours later, the average number of stools, in group A is 3.45 (1-5) and the average number of stool in group B, is 1.9 (0-4). The two-tailed p-value was <0.0001 with a confidence interval at 95% (1.44-2.6).

| Structure (SMILES) | average number of stools twenty-four hours later | average number of stools on the first visit (day 1) |
| --- | --- | --- |
| CC(C)Cc1ccc(C(C)C(=O)O)cc1 (stereo not shown) [ibuprofen] | 1.9 (0-4) | 5.25 |
| CC(=O)Nc1ccc(O)cc1 [Acetaminophen] | 3.45 (1-5) | 5.12 |
